This is an account of results in BindingDB's records for doi:10.7270/Q2KP80MW (The Scripps Research Institute Molecular Screening Center, 2011).

What is called IC50 is the concentration at which inhibition is half-maximal. Low values mean greater potency, high ones weaker potency.

Structures are written as SMILES.

For this assay, the target named is T1, Peroxisome proliferator-activated receptor gamma (Homo sapiens, UniProt P37231).
T1 sequence (P37231 whole entry): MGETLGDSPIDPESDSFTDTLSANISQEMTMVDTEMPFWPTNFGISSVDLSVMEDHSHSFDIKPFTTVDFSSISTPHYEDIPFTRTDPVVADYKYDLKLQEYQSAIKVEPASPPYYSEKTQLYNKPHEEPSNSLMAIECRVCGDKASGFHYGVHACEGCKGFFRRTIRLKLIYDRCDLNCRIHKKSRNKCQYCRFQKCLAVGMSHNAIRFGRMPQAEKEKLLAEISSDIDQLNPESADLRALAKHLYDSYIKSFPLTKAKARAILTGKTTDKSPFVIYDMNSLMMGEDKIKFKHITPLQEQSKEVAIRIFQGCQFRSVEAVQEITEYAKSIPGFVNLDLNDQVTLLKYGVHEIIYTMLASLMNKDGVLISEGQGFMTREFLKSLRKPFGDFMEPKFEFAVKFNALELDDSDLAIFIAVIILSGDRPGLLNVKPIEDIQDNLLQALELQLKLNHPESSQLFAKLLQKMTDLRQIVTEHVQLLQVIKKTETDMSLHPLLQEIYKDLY
Nature of the assay: competitive ligand displacement at PPARg – biochemical, fluorescence polarization, PolarScreen, PPARg partial agonist project, dose response (AID 504453).
Compound `COc1ccc2nc(N3C(=O)C(=O)C(C(=O)c4ccco4)C3c3ccc(C)o3)sc2c1` (centres undefined) came in with a half-inhibitory concentration (IC50) of 5 µM.
For `Cc1ccc2nc(N3C(=O)C(=O)C(C(=O)c4ccc(C)o4)C3c3ccco3)sc2c1` (centres undefined) the value was 22 µM; for `Cc1ccc2nc(N3C(=O)C(=O)C(C(=O)c4ccco4)C3c3ccc(C)o3)sc2c1` (centres undefined) [3-[2-furanyl(oxo)methyl]-4-hydroxy-1-(6-methyl-1,3-benzothiazol-2-yl)-2-(5-methyl-2-furanyl)-2H-pyrrol-5-one;oxalic acid], 30 µM; for `CCOc1ccc2nc(N3C(=O)C(=O)C(C(=O)c4ccco4)C3c3ccco3)sc2c1` (centres undefined) [1-(6-ethoxy-1,3-benzothiazol-2-yl)-2-(2-furanyl)-3-[2-furanyl(oxo)methyl]-4-hydroxy-2H-pyrrol-5-one], 3 µM.
